Experimental findings from patent publication US20250136614A1, “2,7-SUBSTITUTED PYRROLO[2,1-F][1,2,4]TRIAZINE COMPOUND HAVING PROTEIN KINASE INHIBITORY ACTIVITY” (Magicbullettherapeutics Co., Ltd., priority 2021, published 2025) are described below.

Substitutions are numbered along the chain they refer to. Bounds are passed on as bounds.

For one test, the target named is T1, Ba/F3 FLT3 (ITD/D835Y) (Homo sapiens, UniProt P36888, D835Y, cells depend on it, form not given).
T1 sequence (P36888 1-993 D835Y): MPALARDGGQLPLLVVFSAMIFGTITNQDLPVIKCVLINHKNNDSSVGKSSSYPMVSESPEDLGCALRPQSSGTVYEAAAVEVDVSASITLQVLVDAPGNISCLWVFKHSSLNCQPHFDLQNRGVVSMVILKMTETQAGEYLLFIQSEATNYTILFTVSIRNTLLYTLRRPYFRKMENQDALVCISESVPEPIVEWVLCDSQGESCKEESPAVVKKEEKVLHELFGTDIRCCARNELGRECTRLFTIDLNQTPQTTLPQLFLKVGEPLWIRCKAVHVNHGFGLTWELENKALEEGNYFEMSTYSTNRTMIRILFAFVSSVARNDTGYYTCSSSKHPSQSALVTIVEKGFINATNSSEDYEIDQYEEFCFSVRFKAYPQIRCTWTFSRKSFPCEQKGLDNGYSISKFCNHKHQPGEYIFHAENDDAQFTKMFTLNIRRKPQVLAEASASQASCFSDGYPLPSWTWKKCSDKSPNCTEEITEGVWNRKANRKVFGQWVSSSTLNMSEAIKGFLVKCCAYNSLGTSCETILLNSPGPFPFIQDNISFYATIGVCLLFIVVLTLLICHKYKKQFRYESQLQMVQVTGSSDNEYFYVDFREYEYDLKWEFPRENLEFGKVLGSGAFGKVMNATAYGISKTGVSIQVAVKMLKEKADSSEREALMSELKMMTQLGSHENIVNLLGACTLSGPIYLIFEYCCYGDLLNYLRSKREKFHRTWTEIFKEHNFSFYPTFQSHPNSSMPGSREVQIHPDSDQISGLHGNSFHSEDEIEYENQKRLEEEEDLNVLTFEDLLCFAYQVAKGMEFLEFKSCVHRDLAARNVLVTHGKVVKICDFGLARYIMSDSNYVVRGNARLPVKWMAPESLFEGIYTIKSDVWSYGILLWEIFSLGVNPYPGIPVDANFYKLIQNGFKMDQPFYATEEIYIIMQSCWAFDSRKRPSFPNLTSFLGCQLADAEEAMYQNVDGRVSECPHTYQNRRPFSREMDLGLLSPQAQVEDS
Put plainly: Ba/F3 cell growth inhibition (CellTiter-Glo, 72 hours). The following applies: read-out: Ba/F3 GI50s (μM) FLT3 (ITD/D835Y). It is filed as cell-based.

In test [1] the target is T2, Ba/F3 FLT3 (ITD/D835YF691L) (Homo sapiens, UniProt P36888, F691L/D835Y, cells depend on it, form not given).
T2 sequence (P36888 1-993 F691L/D835Y): T1 sequence (P36888 1-993 D835Y) with F691L
The description is as above. It is filed as cell-based. Conditions: read-out: Ba/F3 GI50s (μM) FLT3 (ITD/D835YF691L).

With `CS(=O)(=O)Nc1cccc(-c2ccc3cnc(Nc4ccc(N5CCN(CCCCCOc6cccc7c6C(=O)N(C6CCC(=O)NC6=O)C7=O)CC5)cc4)nn23)c1` (stereo not drawn) [Example 39], the GI50 (on Ba/F3 FLT3 (ITD/D835Y); in test [1]) was no less than 10 µM in each case.

As for `CS(=O)(=O)Nc1cccc(-c2ccc3cnc(Nc4ccc(N5CCN(CCCOc6cccc7c6C(=O)N(C6CCC(=O)NC6=O)C7=O)CC5)cc4)nn23)c1` (stereo not drawn) [Example 40], the GI50 (on Ba/F3 FLT3 (ITD/D835Y); in test [1]) was less than 1 µM in each case.

As for `CS(=O)(=O)Nc1cccc(-c2ccc3cnc(Nc4ccc(N5CCN(CCCCCCCOc6cccc7c6C(=O)N(C6CCC(=O)NC6=O)C7=O)CC5)cc4)nn23)c1` (stereo not drawn) [Example 41], the GI50 at Ba/F3 FLT3 (ITD/D835Y) is 1 to 10 µM; in test [1], less than 1 µM.

In the case of `CS(=O)(=O)Nc1cccc(-c2ccc3cnc(Nc4ccc(N5CCN(CCCCCCCCCCCOc6cccc7c6C(=O)N(C6CCC(=O)NC6=O)C7=O)CC5)cc4)nn23)c1` (stereo not drawn) [Example 42], the GI50 (on Ba/F3 FLT3 (ITD/D835Y); in test [1]) was 1 to 10 µM throughout.

As to `Cc1ncsc1-c1ccc(CNC(=O)[C@@H]2C[C@@H](O)CN2C(=O)[C@@H](NC(=O)COCCN2CCN(c3ccc(Nc4ncc5ccc(-c6cccc(NS(C)(=O)=O)c6)n5n4)cc3)CC2)C(C)(C)C)cc1` [Example 83, (2S,4R)-1-((S)-3,3-dimethyl-2-(2-(2-(4-(4-((7-(3-(methanesulfonamido)phenyl)pyrrolo[2,1-f][1,2,4]triazin-2-yl)amino)phenyl)piperazin-1-yl)ethoxy)acetaamino)butanoyl)-4-hydroxy-N-(4-(4-methylthiazol-5-yl)benzyl)pyrrolidin-2-carboxamide], the GI50 is less than 1 µM at Ba/F3 FLT3 (ITD/D835Y) and no less than 10 µM in test [1].

Regarding `Cc1ncsc1-c1ccc(CNC(=O)[C@@H]2C[C@@H](O)CN2C(=O)[C@@H](NC(=O)CCOCCOCCN2CCN(c3ccc(Nc4ncc5ccc(-c6cccc(NS(C)(=O)=O)c6)n5n4)cc3)CC2)C(C)(C)C)cc1` [Example 84, (2S,4R)-1-((S)-3,3-dimethyl-2-(3-(2-(2-(4-(4-((7-(3-(methanesulfonamido)phenyl)pyrrolo[2,1-f][1,2,4]triazin-2-yl)amino)phenyl)piperazin-1-yl)ethoxy)ethoxy)propanamido)butanoyl)-4-hydroxy-N-(4-(4-methylthiazol-5-yl)benzyl)pyrrolidin-2-carboxamide], the GI50 at Ba/F3 FLT3 (ITD/D835Y) was less than 1 µM; in test [1], no less than 10 µM.
